Reference: patent publication US10294217B2, “Fluoroindole derivatives as muscarinic M1 receptor positive allosteric modulators” (Suven Life Sciences Limited, priority 2015, dated 2019)
Structures can show the parent of a compound that is named as a salt. Where two headings read alike, the source gives them in different places.

Assays:
[1] = Rodent brain penetration study; format: in vivo, Male Wistar rats; settings: male, Wistar, rat, oral; 3 mg/kg, p.o.; brain-plasma ratio; read-out: Single dose Rat Brain Penetration (Cb/Cp)
Method: WO2015044072A1 patent application discloses indole derivatives as M1 PAM compounds. […] This makes these compounds less ideal for the treatment of CNS disorders.
Rodent Brain Penetration Study
Male Wistar rats (260±40 grams) were used as experimental animals. Three animals were housed in each cage. Animals were given water and food ad libitum throughout the experiment and maintained on a 12 hours light/dark cycle.
Brain penetration was determined in discrete manner in rats. One day prior to dosing day, male Wistar rats were acclimatized and randomly grouped according to their weight. At each time point (0.5, 1 and 2 hours) n=3 animals were used.
The test compounds were suitably preformulated and administered orally at (free base equivalent) 3 mg/kg. Blood samples were removed via cardiac puncture by using isoflurane anesthesia. The animals were sacrificed to collect brain tissue. Plasma was separated and brain samples were homogenized and stored frozen at ˜20° C. until analysis. The concentrations of the test compounds in plasma and brain were determined using LC-MS/MS method.
The test compounds were quantified in plasma and brain homogenate by qualified LC-MS/MS method using suitable extraction technique. The test compounds were quantified in the calibration range of 1-500 ng/mL in plasma and brain homogenate. Study samples were analyzed using calibration samples in the batch and quality control samples spread across the batch.

[2] = biological target: human Muscarinic M1 receptor (Homo sapiens (Human), UniProt P11229); assay: Allosteric potency EC50 for muscarinic M1 receptor (CHO cells, pCRE-Luc reporter); format: cell-based; settings: luciferase activity, 4 hours
Method: Determination of Allosteric Potency EC50 Values for Muscarinic M1 Receptor:
A stable CHO cell line expressing recombinant human Muscarinic M1 receptor and pCRE-Luc reporter system was used for cell-based assay. The assay offers a non-radioactive based approach to determine binding of a compound to GPCRs. In this specific assay, the level of intracellular cyclic AMP which is modulated by activation or inhibition of the receptor is measured. The recombinant cells harbor luciferase reporter gene under the control of cAMP response element.
The above cells were grown in 96 well clear bottom white plates in Hams F12 medium containing 10% fetal bovine serum (FBS). Prior to the addition of compounds or standard agonist, cells were serum starved overnight. Increasing concentrations of test compounds were added along with EC20 of acetylcholine in OptiMEM medium to the cells. The incubation was continued at 37° C. in CO2 incubator for 4 hours. Medium was removed and cells were washed with phosphate buffered saline. The cells were lysed and luciferase activity was measured in a Luminometer. Luminescence units were plotted against the compound concentrations using Graphpad software. EC50 values of the compounds were defined as the concentration required in stimulating the luciferase activity by 50% in presence of EC20 of acetylcholine and the results are provided in table 1.

[3] = Rodent pharmacokinetic study; format: in vivo, Male Wistar rats; settings: male, Wistar
Method: Rodent Pharmacokinetic Study
Male Wistar rats (260±50 grams) were used as experimental animals. Animals were housed individually in polypropylene cage. Two days prior to study, male Wistar rats were anesthetized with isoflurane for surgical placement of jugular vein catheter. Rats were randomly divided for oral (3 mg/kg) and intravenous (i.v.) (1 mg/kg) dosing (n=3/group) and fasted overnight before oral dosing (p.o.). However, rats allocated to intravenous dosing food and water was provided ad libitum.
At pre-determined point, blood was collected through jugular vein and replenished with an equivalent volume of normal saline. Collected blood was transferred into a labeled eppendorf tube containing 10 μL of heparin as an anticoagulant. Typically blood samples were collected at following time points: 0.08, 0.25, 0.5, 1, 2, 4, 6, 8, and 24 hours post dose. Blood was centrifuged at 4000 rpm for 10 minutes. Plasma was separated and stored frozen at −80° C. until analysis. The concentrations of the test compounds were quantified in plasma by qualified LC-MS/MS method using suitable extraction technique. The test compounds were quantified in the calibration range around 1-1000 ng/mL in plasma. Study samples were analyzed using calibration samples in the batch and quality control samples spread across the batch.
Pharmacokinetic parameters Cmax, AUCt, T1/2, Clearance, and Bioavailability (% F) were calculated by non-compartmental model using standard non-compartmental model by using Phoenix WinNonlin 6.0.2 or 6.0.3 version Software package and the results are tabulated in table 3.

[4] = hM1 PAM EC50, in presence of EC20 of acetylcholine
[5] = in presence of EC20 of acetylcholine, read-out: hM1 PAM EC50

Row | SMILES | Kp [1] | EC50 [2, 4] [µM] | EC50 [2, 5] [µM] | other results
1 | O=C(N[C@H]1CCNC[C@H]1F)c1cn(Cc2ccc(F)cc2)c2cccc(F)c12 (single isomer, unassigned; isomer-i) [Example 30, cis-N-(3-Fluoropiperidin-4-yl)-1-(4-fluorobenzyl)-4-fluoro-1H-indole-3-carboxamide hydrochloride (Isomer-I)] | 1.05 ± 0.53 | 1.08 |  | 
2 | COc1cccc(Cn2cc(C(=O)N[C@H]3CCNC[C@H]3F)c3c(F)cccc32)c1 (single isomer, unassigned; isomer-i) [Example 35, cis-N-(3-Fluoropiperidin-4-yl)-4-fluoro-1-(3-methoxybenzyl)-1H-indole-3-carboxamide hydrochloride (Isomer-I)] | 0.72 ± 0.03 | 1.48 |  | 
3 | COc1ccc(Cn2cc(C(=O)N[C@H]3CCNC[C@H]3F)c3c(F)cccc32)cc1 (single isomer, unassigned; isomer-i) [Example 38, cis-N-(3-Fluoropiperidin-4-yl)-1-(4-methoxybenzyl)-4-fluoro-1H-indole-3-carboxamide hydrochloride (Isomer-I)] | 1.03 ± 0.17 | 1.45 |  | 
4 | O=C(NC1CCNCC1F)c1cn(Cc2ccnc(F)c2)c2c(F)ccc(F)c12 (single isomer, unassigned; isomer-ii) [Example 23, cis-N-(3-Fluoropiperidin-4-yl-1-(2-fluoropyridin-4-ylmethyl)-4,7-difluoro-1H-indole-3-carboxamide hydrochloride (Isomer-II)] |  | 1.07 |  | 
5 | O=C(N[C@@H]1CCNC[C@H]1F)c1cn(Cc2ccnc(F)c2)c2c(F)ccc(F)c12 (single isomer, unassigned; isomer-ii) [Example 25, trans-N-(3-Fluoropiperidin-4-yl)-1-(2-fluoropyridin-4-ylmethyl)-4,7-difluoro-1H-indole-3-carboxamide hydrochloride (Isomer-II)] |  | 1.44 |  | 
6 | O=C(N[C@H]1CCNC[C@H]1F)c1cn(Cc2ccc(F)cc2)c2c(F)ccc(F)c12 (single isomer, unassigned; isomer-ii) [Example 32, cis-N-(3-Fluoropiperidin-4-yl)-1-(4-fluorobenzyl)-4,7-difluoro-1H-indole-3-carboxamide hydrochloride (Isomer-II)] |  | 1.59 |  | 
7 | COc1cccc(Cn2cc(C(=O)N[C@H]3CCNC[C@H]3F)c3c(F)cccc32)c1 (single isomer, unassigned; isomer-ii) [Example 36, cis-N-(3-Fluoropiperidin-4-yl)-4-fluoro-1-(3-methoxybenzyl)-1H-indole-3-carboxamide hydrochloride (Isomer-II)] |  | 1.35 |  | 
8 | COc1ccc(Cn2cc(C(=O)N[C@H]3CCNC[C@H]3F)c3c(F)cccc32)cc1 (single isomer, unassigned; isomer-ii) [Example 37, cis-N-(3-Fluoropiperidin-4-yl)-1-(4-methoxybenzyl)-4-fluoro-1H-indole-3-carboxamide hydrochloride (Isomer-II)] |  | 1.99 |  | 
9 | Cn1cc(Cn2cc(C(=O)N[C@@H]3CCCC[C@H]3O)c3c(F)cccc32)cn1 [Example 3, N-[(1R,2R)-2-Hydroxycyclohexyl]-1-(1-methyl-1H-pyrazol-4-ylmethyl)-4-fluoro-1H-indole-3-carboxamide] |  |  | 1.64 | 
10 | Cn1nc(Cn2cc(C(=O)N[C@H]3CCCC[C@@H]3O)c3c(F)cccc32)c2ccccc21 [Example 4] |  |  | 1.49 | 
11 | O=C(N[C@H]1CCCC[C@@H]1O)c1cn(Cc2ccncc2F)c2cccc(F)c12 [Example 9, N-[(1S,2S)-2-Hydroxycyclohexyl]-1-(3-fluoropyridin-4-ylmethyl)-4-fluoro-1H-indole-3-carboxamide] |  |  | 1.42 | 
12 | O=C(N[C@H]1CCCC[C@@H]1O)c1cn(Cc2ccncc2F)c2c(F)ccc(F)c12 [Example 10, N-[(1S,2S)-2-Hydroxycyclohexyl]-1-(5-fluoropyridin-4-ylmethyl)-4,7-difluoro-1H-indole-3-carboxamide] | 2.4 ± 0.3 |  | 0.94 | 
13 | O=C(N[C@H]1CCCC[C@@H]1O)c1cn(Cc2cc(F)ncc2F)c2cccc(F)c12 [Example 11, N-[(1S,2S)-2-Hydroxycyclohexyl]-1-(2,5-difluoropyridin-4-ylmethyl)-4-fluoro-1H-indole-3-carboxamide] | 1.59 ± 0.35 |  | 1.53 | 
14 | O=C(N[C@H]1CCCC[C@@H]1O)c1cn(Cc2cc(F)ncc2F)c2c(F)ccc(F)c12 [Example 12, N-[(1S,2S)-2-Hydroxycyclohexyl]-1-(2,5-difluoropyridin-4-ylmethyl)-4,7-difluoro-1H-indole-3-carboxamide] | 1.64 ± 0.12 |  | 0.432 | AUC(0-t) ([3]; iv, 1 mg/kg, rat plasma): 609 ± 62 ng·h/mL; half-life ([3]; iv, 1 mg/kg, rat plasma): 1.6 ± 0.5 h; clearance ([3]; plasma, iv, 1 mg/kg, rat): 26.7 ± 3.4 mL/min/kg; bioavailability ([3]; plasma, oral 3 mg/kg vs i.v. 1 mg/kg, rat, read-out: % F (Bioavailability)): 62 ± 6%; AUC(0-t) ([3]; oral, 3 mg/kg, rat plasma): 1140 ± 114 ng·h/mL; Cmax ([3]; oral, 3 mg/kg, rat plasma): 337 ± 141 ng/mL; half-life ([3]; oral, 3 mg/kg, rat plasma): 3 ± 3 h
15 | O=C(N[C@H]1CCCC[C@@H]1O)c1cn(Cc2ccnc(F)c2F)c2cccc(F)c12 [Example 13, N-[(1S,2S)-2-Hydroxycyclohexyl]-1-(2,3-difluoropyridin-4-ylmethyl)-4-fluoro-1H-indole-3-carboxamide] |  |  | 1.38 | 
16 | O=C(N[C@H]1CCCC[C@@H]1O)c1cn(Cc2ccc3ncsc3c2)c2cccc(F)c12 [Example 18, N-[(1S,2S)-2-Hydroxycyclohexyl]-1-(benzothiazol-6-ylmethyl)-4-fluoro-1H-indole-3-carboxamide] |  |  | 0.16 | 
17 | O=C(N[C@H]1CCCC[C@@H]1O)c1cn(Cc2cnn(CCF)c2)c2cccc(F)c12 [Example 19, N-[(1S,2S)-2-Hydroxycyclohexyl]-1-(1-(2-fluoroethyl)-1H-pyrazol-4-ylmethyl)-4-fluoro-1H-indole-3-carboxamide] |  |  | 0.744 | 
